Earlier results in patent US4749688A, “Use of neutral metalloendopeptidase inhibitors in the treatment of hypertension” (Schering Corporation, priority 1986, dated 1988).

Key:
peripheral ACE = peripheral ACE (Homo sapiens, UniProt P12821)
[1] = in vivo

Chain of peripheral ACE (P12821 30-1306): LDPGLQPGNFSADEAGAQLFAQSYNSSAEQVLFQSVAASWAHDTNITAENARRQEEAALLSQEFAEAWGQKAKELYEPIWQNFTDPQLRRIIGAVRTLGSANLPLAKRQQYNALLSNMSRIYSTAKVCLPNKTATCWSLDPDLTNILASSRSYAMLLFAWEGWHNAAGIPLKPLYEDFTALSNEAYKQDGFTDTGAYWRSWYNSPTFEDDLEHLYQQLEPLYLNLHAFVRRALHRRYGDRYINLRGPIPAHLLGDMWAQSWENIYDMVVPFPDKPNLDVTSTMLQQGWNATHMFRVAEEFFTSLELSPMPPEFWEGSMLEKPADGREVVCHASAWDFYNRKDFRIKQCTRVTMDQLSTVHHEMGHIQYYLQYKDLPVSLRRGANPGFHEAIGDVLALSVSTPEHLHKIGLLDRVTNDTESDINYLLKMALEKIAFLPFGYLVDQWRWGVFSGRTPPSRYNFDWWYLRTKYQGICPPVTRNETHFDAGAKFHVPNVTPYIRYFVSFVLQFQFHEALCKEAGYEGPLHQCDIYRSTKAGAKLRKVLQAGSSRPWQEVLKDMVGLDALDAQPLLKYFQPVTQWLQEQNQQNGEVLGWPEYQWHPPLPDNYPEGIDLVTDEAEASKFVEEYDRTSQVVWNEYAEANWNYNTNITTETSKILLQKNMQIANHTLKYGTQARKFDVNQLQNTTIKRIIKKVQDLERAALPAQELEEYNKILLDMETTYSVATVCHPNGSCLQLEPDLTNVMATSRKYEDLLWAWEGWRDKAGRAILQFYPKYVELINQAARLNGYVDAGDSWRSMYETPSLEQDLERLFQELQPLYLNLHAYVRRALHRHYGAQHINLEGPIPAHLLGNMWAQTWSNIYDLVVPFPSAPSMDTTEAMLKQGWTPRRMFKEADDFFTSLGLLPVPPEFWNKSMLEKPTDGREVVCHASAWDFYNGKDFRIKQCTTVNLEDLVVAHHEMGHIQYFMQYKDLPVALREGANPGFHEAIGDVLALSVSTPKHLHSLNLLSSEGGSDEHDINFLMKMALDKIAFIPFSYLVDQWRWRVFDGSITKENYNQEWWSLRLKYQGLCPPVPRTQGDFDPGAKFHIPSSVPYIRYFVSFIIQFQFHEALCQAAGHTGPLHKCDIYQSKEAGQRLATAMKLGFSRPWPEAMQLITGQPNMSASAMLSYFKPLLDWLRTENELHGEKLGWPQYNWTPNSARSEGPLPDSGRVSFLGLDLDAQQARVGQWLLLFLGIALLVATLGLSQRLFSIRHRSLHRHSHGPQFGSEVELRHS

In the case of O=C(O)CNC(=O)C(CS)Cc1ccccc1 (racemic) [thiorphan, N-[(R,S)-3-mercapto-2-benzylpropanoyl]-glycine], the “inhibition of peripheral ACE” value (peripheral ACE) is listed as “inhibit peripheral ACE”, the blood pressure [1] is listed as “not affected” and the heart rate [1] is listed as “not affected”.
